Reference: patent publication US8227421B2, “Fluorinated GHRH antagonists” (University of Miami, priority 2009, dated 2012)

Test system: PC-3 human hormone-independent prostate cancer
Assay: Effect of treatment with GH-RH antagonists on PC-3 human prostate cancer xenografts in nude mice
Format: in vivo
Details: male nude mice, s.c. PC-3 xenografts, 2 ug/day s.c.
Procedure: Male nude mice were implanted s.c. with 3 mm3 pieces of PC-3 human hormone-independent prostate cancer tissue on both flanks. When tumors reached a volume of approximately 50 mm3, the mice were divided into 14 experimental groups with 8 to 10 animals in each group and received single daily injections for 28 as follows: 1. Control (vehicle solution); 2. P-12211 (2 μg/day s.c.); 3. P-12307 (2 μg/day s.c.); 4. P-12317 (2 μg/day s.c.); 5. P-12408 (2 μg/day s.c.); 6. P-12409 (2 μg/day s.c.); 7. P-12457 (2 μg/day s.c.); 8. P-12473 (2 μg/day s.c.); 9. P-12479 (2 μg/day s.c.); 10. P-12600 (2 μg/day s.c.); 11. P-12601 (2 μg/day s.c.); 12. P-12602 (2 μg/day s.c.); 13. P-12603 (2 μg/day s.c.); and 14. P-12610 (2 μg/day s.c.).
The inhibitory effect of P-12473, P-12479, P-12600, P-12601, P-12602, and P-12610 were statistically significant (p<0.001).
Effect of Treatment with GH-RH Antagonists on PC-3 Human Prostate Cancer Xenografts in Nude Mice

[PhAc^0-Tyr^1, D-Arg^2, Cpa^6, Ala^8, Har^9, Fpa5^10, His^11, Orn^12, Abu^15, His^20, Orn^21, Nle^27, D-Arg^28, Har^29, Ada^30]hGH-RH(1-30)NH2 [Peptide P-12610]
Tumor Growth after 4 weeks (%) (single daily injections for 28): 474.98%
Tumor growth inhibition after 4 weeks (%) (single daily injections for 28, versus control): 77.78%
